Test results: the METLIN SMRT retention time set (Domingo-Almenara et al. 2019)

Assay: gradient 5% acetonitrile 3 min, to 50% in 2 min, to 85% in 15 min, held 3 min, 100 µL/min
Conditions: column: Zorbax Extend-C18 2.1 x 50 mm; eluents: water / acetonitrile, 0.1% formic acid
Procedure, shortened: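 The system's dead and dwell volumes were 40 μL and 900 μL, with a Zorbax Extend-C18 column (2.1 × 50 mm, 1.8 μm) run at 100 μL/min in water and acetonitrile containing 0.1% formic acid each. Pure standards were analyzed in mixtures of ~100 molecules by HPLC–quadrupole time-of-flight mass spectrometry in positive and negative ionization mode. Retention time was assigned from computationally picked, manually inspected adduct peaks.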

SMILES	RP-LC retention time
CC(C)CCNC(=O)c1ccc2c(c1)nc1n2CCN(C2CCCCC2)C1=O	815 s
COc1ccc(NC(=O)C2CCN(S(=O)(=O)c3ccc4c(c3)sc(=O)n4C(C)C)CC2)cc1	922 s
Cc1ccc(C2CC(=O)c3cnc(Nc4nc(C)c5ccccc5n4)nc3C2)cc1 (stereo unspecified)	772 s
Cc1ccc(CNC(=O)Cn2c(N3CCCCC3)nc(C)cc2=O)cc1	661 s
CN1C(=O)c2cccnc2Sc2cc(NC(=O)c3cccc(C(F)(F)F)c3)ccc21	910 s
COc1ccc(-n2ccc(=O)c(-c3nc(-c4ccc(Cl)cc4)no3)n2)cc1	938 s
COCCC(=O)N1CCOc2ccc(N(C)C)cc2C1	612 s
O=C(c1ccc2ncnc(N3CCCC3)c2c1)N1CCCC1	580 s
COC(=O)c1ccc(NC(=O)N2CC(C)Oc3ccccc32)cc1 (stereo unspecified)	879 s
Cc1cc2c(cc1S(=O)(=O)N1CCCC1C(=O)Nc1ccc(C(C)C)cc1)OC(C)C(=O)N2 (stereo unspecified)	916 s
CCc1noc(NC(C)=O)c1-c1ccc(C)c(S(=O)(=O)Nc2ccccc2C)c1	836 s
COc1ccc(-c2cn3c(CC(=O)NC4CCCCC4)csc3n2)cc1OC	702 s
C/C=C1/C(=O)C[C@H]2[C@@H]3CCC4=CC(=O)CC[C@]4(C)[C@H]3CC[C@]12C	1100 s
Cc1ccc2c(c1)N(S(C)(=O)=O)CCC(C(=O)NCc1ccccc1)O2 (stereo unspecified)	875 s
Cc1cccc(CC(=O)N2CCCn3cc(-c4cccc(C#N)c4)nc32)c1	782 s
CCOc1ccccc1C(=O)Nc1ccc2c(c1)Sc1ncccc1C(=O)N2CC	822 s
COc1ccc2[nH]c(=O)c(CCC(=O)NCCCN3CCCCC3)cc2c1	586 s
Cc1ccc(S(=O)(=O)CCc2nc3ccccc3n2CC(=O)O)cc1	607 s
CCC(C)NC(=O)C1c2cc(OC)c(OC)cc2C(=O)N(C)C1c1ccc(OC)c(OC)c1 (stereo unspecified)	710 s
CCCCc1ccc(NC(=O)Cn2cnc3c(sc4nc(-c5ccccc5)ccc43)c2=O)cc1	1260 s
CCc1nccn1Cc1nc(-c2ccc(C)cc2)no1	646 s
Cc1cccc(NC(=O)CN2C(=O)C3CCCN3C(=O)c3ccc(F)cc32)c1C (stereo unspecified)	731 s

SMILES	RP-LC retention time
Cc1ccc(NC(=O)N2CCC(n3cnc4cc(Cl)ccc4c3=O)CC2)cc1	856 s
O=C(NCCN1CCOCC1)C1CN(C(=O)c2ccccc2)CC12CCCCC2 (stereo unspecified)	605 s
CC(C)Oc1ccc(CNC(=O)c2ccc3c(c2)nc2n3CCN(C(C)C)C2=O)cc1	754 s
COc1ccc(NC(=O)CSc2nnc3c4cc(-c5ccccc5)nn4ccn23)c(OC)c1	858 s
CCSc1nnc(-c2nn(C)c3c2CN(C(=O)c2ccccc2F)CC3)n1C	732 s
O=C(c1nnn(-c2ccccc2Cl)c1-c1ccncc1)N1CCCC1	716 s
CSc1cccc(NC(=O)Cn2c(=O)n(-c3cccc(C)c3)c(=O)c3c2cc(C)n3C)c1	920 s
CC(C)N1C(=O)c2cccnc2Sc2cc(NC(=O)c3ccc(F)cc3)ccc21	896 s
CN1C(=O)c2cc(C(=O)NCc3ccccc3F)nn2CC1(C)C(=O)NCc1ccc(F)cc1 (stereo unspecified)	792 s
O=C(Cn1cnc2c(sc3nc(-c4ccccc4)ccc32)c1=O)Nc1ccccc1	986 s
O=C(Cn1cccc1-c1nnc(C2CC2)o1)Nc1ccc(Cl)cc1F	908 s
CCCCNC(=O)Cn1c(=O)c2cnc(-c3ccc(Cl)cc3)nc2n(CC)c1=O	1050 s
O=C(Nc1cnc(N2CCOCC2)nc1)c1cc(F)cc(F)c1	789 s
CCc1ccc2c(c1)-c1ccccc1S(=O)(=O)N2CC(=O)NCc1ccncc1	703 s
O=C(NCCOc1ccc(-c2cccs2)nn1)NCc1ccccc1	734 s
CCOCCCNC(=O)CN1C(=O)C2CCCCN2c2ccc(S(=O)(=O)N3CCCC3)cc21 (stereo unspecified)	819 s
CC(=O)N1c2ccc(S(=O)(=O)N3CCCC3)cc2CC1C(=O)NCCc1ccccc1C (stereo unspecified)	848 s
CCCN1C(=O)COc2ccc(-c3noc(-c4cncc(Br)c4)n3)cc21	1160 s
Cc1nnc2c(=O)n(CC(=O)NCc3ccc(N(C)C)cc3)c3cccnc3n12	570 s
Cc1ccc(CNC(=O)C2CCN(S(=O)(=O)c3ccc4c(c3)CCCC(=O)N4)CC2)o1	710 s
COCCN1C(=O)CCc2cc(NS(=O)(=O)c3ccc(C)cc3C)ccc21	816 s
Cc1ccc(NC(=O)c2ccc(=O)n(CCN3CCOCC3)c2)cc1	611 s

SMILES	RP-LC retention time
CCCOc1ccc(N2CCN(C(=O)c3cc(Cl)ccc3OC)CC2)nn1	670 s
Cc1[nH]c(C(=O)Nc2cccc(Cl)c2)c(C)c1S(=O)(=O)N1CCCC1	943 s
CCOC(=O)C(C#N)C(=N)C1C(=O)OC2CCCCC21 (stereo unspecified)	839 s
Cc1nnc(-c2nnc(NCc3ccccc3)c3ccccc23)o1	776 s
CC1OC1c1ccc(-c2ccc(C3OC3C)cc2)cc1 (stereo unspecified)	1140 s
CN(C)CCn1nnc2cc(-c3noc(-c4ccccc4)n3)ccc21	651 s
COc1cccc(Cc2nc(-c3cccc(-c4ccnn4C)c3)no2)c1	1010 s
COc1cc(CN2CCC3(CC2)CC(C)(O)CCO3)cc(OC)c1 (stereo unspecified)	561 s
Cc1oc(C2CCN(C(=O)Nc3ccc(F)cc3)CC2)nc1C(=O)N1CCCC1	752 s
COc1cc(NC(=O)NC2CCN(c3cc(N4CCOCC4)cnn3)C2)cc(OC)c1 (stereo unspecified)	629 s
O=C(Cn1c(=O)c2cccn2c2ccc(F)cc21)NCc1cccs1	785 s
CCc1nc2onc(C)c2c(=O)n1CC(=O)NCC(C)c1ccccc1 (stereo unspecified)	832 s
Cc1cc(=O)n(CC(=O)Nc2ccc(Cl)cc2)c(N2CCCCC2)n1	708 s
CNC(=O)[C@@H]1CN(C(=O)CCn2nc(C)cc2C)C[C@H]1c1n[nH]c(C)n1	554 s
N#Cc1cnc2ccccc2c1N1CCC(C(=O)N2CCSCC2)CC1	658 s
CCCN1C(=O)COc2ccc(-c3noc(-c4ccc(OC)c(OC)c4)n3)cc21	1110 s
COc1ccc(-c2cc(NCCc3ccc(OC)c(OC)c3)ncn2)cc1	563 s
COc1ccc(NC(=O)Cn2c(=O)cc(-c3nc(C(C)C)no3)c3ccccc32)cc1	938 s
O=C(NCCc1ccccc1)N1CCC(c2noc(-c3cnccn3)n2)C1 (stereo unspecified)	715 s
CC(C)c1ccc(NC(=O)CC2=C3CCCCC3N(C(C)C)C2=O)cc1 (stereo unspecified)	1070 s
O=C1CCCCC(CNC(=O)C2(c3ccccc3)CC2)N1 (stereo unspecified)	697 s
CC1=C(C(=O)Nc2ccc(C(=O)NCCCN3CCN(C4CCCCC4)CC3)cc2)SCCO1	576 s
